Measured values: paper PMC10761647, “β-carboline derivative Z86 attenuates colorectal cancer cell proliferation and migration by directly targeting PI3K” (Natural Products and Bioprospecting, 2024)

Target: T1, PI3Kα (Homo sapiens, UniProt P42336)
T1 construct: gene PIK3CA
Experiment: PI3-Kinase Activity ELISA (PIP3 production) with purified PI3Kα; supported by CETSA and DARTS in HCT116 and SW480 cells/lysates
Format: biochemical

T1 sequence (P42336 whole entry): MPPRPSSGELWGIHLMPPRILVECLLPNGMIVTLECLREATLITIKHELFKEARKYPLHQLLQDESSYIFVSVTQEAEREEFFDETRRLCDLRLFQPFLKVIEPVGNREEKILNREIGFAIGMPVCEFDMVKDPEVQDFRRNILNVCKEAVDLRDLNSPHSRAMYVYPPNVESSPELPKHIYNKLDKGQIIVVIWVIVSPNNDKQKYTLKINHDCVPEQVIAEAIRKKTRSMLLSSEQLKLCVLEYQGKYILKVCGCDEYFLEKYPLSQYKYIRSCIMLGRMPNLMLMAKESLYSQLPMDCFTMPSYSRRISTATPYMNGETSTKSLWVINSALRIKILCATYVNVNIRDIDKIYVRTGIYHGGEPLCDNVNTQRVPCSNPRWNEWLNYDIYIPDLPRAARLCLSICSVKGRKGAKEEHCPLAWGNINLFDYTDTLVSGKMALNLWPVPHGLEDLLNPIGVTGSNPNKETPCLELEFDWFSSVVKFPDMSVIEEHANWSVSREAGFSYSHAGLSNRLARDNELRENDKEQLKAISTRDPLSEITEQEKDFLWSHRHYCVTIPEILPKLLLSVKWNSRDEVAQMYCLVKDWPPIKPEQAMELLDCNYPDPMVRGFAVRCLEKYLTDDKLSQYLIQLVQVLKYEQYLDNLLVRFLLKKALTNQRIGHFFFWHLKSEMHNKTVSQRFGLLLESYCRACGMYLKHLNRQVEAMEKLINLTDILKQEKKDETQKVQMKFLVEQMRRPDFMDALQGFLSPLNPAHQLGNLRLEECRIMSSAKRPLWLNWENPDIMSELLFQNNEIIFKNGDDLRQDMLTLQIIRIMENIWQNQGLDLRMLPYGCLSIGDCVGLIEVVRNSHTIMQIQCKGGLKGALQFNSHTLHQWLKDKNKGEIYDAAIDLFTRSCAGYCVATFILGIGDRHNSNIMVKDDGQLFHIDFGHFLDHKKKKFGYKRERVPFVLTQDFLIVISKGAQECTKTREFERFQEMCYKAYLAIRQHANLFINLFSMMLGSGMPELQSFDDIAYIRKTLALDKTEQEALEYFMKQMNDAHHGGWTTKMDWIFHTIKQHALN
T1 sequence (P27986 2-724 partner): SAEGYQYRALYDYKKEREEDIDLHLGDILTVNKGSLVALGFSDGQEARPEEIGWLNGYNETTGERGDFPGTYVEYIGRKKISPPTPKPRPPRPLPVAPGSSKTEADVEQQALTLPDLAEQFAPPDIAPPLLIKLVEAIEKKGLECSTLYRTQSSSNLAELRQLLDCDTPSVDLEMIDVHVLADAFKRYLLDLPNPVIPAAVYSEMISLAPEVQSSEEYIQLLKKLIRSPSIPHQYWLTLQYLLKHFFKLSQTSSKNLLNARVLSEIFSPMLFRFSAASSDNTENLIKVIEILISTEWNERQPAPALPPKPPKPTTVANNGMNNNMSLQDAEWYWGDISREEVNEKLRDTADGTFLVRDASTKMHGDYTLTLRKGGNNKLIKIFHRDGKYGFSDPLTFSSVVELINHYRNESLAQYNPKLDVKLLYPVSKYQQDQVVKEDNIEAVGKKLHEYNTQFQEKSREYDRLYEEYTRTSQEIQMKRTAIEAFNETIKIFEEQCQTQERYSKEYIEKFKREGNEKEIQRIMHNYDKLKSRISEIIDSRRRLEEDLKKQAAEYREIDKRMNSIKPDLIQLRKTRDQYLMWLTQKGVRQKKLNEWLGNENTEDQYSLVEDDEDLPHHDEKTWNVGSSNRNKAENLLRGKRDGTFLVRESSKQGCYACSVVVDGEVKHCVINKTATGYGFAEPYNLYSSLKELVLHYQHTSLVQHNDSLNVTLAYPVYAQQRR

Q: Which IC50 does the source give for `CCn1c2ccccc2c2cc(C(=O)OC(C)C)nc(-c3cccc4ccccc34)c21` [Z86, isopropyl 9-ethyl-1-(naphthalen-1-yl)-9 H-pyrido[3,4-b] indole-3-carboxylate] here?
A: Its IC50 is 4.28 µM.
